According to patent US5075449A, “Method of optically resolving (±)-1-(3-pyridylcarbonyl)-5-methyl-2-pyrazoline” (Mitsui Toatsu Chemicals, Inc., priority 1988, dated 1991):

Legend:
[1] = test system: cerebral edema caused by the occlusion of rat middle cerebral artery; experiment: Suppression of ischemic cerebral edema caused by occlusion of middle cerebral artery in rat; assay type: in vivo, Rat (male Sprague Dawley); conditions: rat MCA occlusion; for Suppression ratio of cerebral edema: i.v. infusion through caudal vein 3 or 10 mg/kg/hr for 24 hours (dose not given), brain water content at 24 hours, * P < 0.05, ** P < 0.001 to control
Experimental: (§1) Rat middle cerebral artery was occluded according to the method of Tamura et. al. (J. Cerebral Blood Flow and Metabolism, 53-60, 1981).
Male Sprague Dawley rats, aged 8 to 10 weeks, were occluded of their left middle cerebral artery under 2% halothane anesthesia. (-)-1-(3-Pyridylcarbonyl)-5-methyl-2-pyrazoline dissolved in 0.9% physiological saline was infused into rats through the caudal vein at a rate of 3 or 10 mg/kg/hr for 24 hours. Rats were sacrificed to death 24 hours after the occlusion of the middle cerebral artery and brain was excised from each rat to determine the water contents in the two cerebral hemispheres, left and right, by the wet and dry weighing method. The occlusion of middle cerebral artery was also conducted on the control group of rats, and they were subsequently infused with 0.9% physiological saline for 24 hours similarly in the drug-administered group. The suppressive ratio of cerebral edema was determined by the following equation. [formula] Cl: Water contents in left cerebral hemisphere of control group CR: Water contents in right cerebral hemisphere of control group
SL: Water contents in left cerebral hemisphere of drug-administered group
SR: Water contents in right cerebral hemisphere of drug-administered group

rats = experiment: Acute toxicity (LD50), intravenous, rat; assay type: in vivo; conditions: for Acute toxicity LD50: mortality up to 72 hours after administration, 4320 min
Experimental: (§2) The drug was intraveneously administered to rats and determined the mortality ratio up to 72 hours after the administration, to calculate 50% lethal dose (LD50) by acute toxicity according to the routine method.

[2] = test system: infarcted lesions caused by the occlusion of middle cerebral artery in rat; experiment: Effect on cerebral ischemic (infarcted) lesions caused by occlusion of middle cerebral artery in rat; assay type: in vivo, Rat (male Sprague Dawley); conditions: rat MCA occlusion; for Infarcted lesions (ratio of infarcted lesions to total area) / Reduction ratio of infarcted lesions: i.v. infusion 10 mg/kg/hr for 24 hours; for Infarcted lesions (ratio of infarcted lesions to total area): TTC staining, control group 16.1, * P < 0.05, ** P < 0.001 to control; for Reduction ratio of infarcted lesions: infarcted lesions of control group defined as 100%
Experimental: as §1
Male Sprague Dawley rats, aged 8 to 10 weeks, were occluded of their left middle cerebral artery under 2% halothane anesthesia. (-)-1-(3-Pyridylcarbonyl)-5-methyl-2-pyrazoline dissolved in 0.9% physiological saline was infused into rats through the caudal vein at a rate of 10 mg/kg/hr for 24 hours. A control group was intraveneously infused with 0.9% physiological saline for 24 hours. Rats were sacrificed to death 24 hours after the occlusion of the middle cerebral artery and brain was excised from each rat. After staining with TTC, the excised brain was cut in 6 identical parts from its top. Cross sections were photographed to measure the ratio of infarcted lesions to total area with a planimeter so that the reduction ratio of infarcted lesions by the drug administration was calculated, provided that the infarcted lesions of the control group was defined as 100%.

[3] = literature: Anesthesiology, 47, 285, 1977; Nippon Rinsho, 43, 185, 1985; cited from earlier work
[4] = Acute toxicity (LD50), intravenous, rat; assay type: in vivo; conditions: in vivo, iv, mortality up to 72 hours after administration
Experimental: as §2

SMILES: CC1CC=NN1C(=O)c1cccnc1 (single isomer, unassigned; (-)) [(-)-form, (-)-1-(3-Pyridylcarbonyl)-5-methyl-2-pyrazoline]
- Effect on cerebral edema (in words) [1]: significantly depressed cerebral edema caused by the occlusion of the middle cerebral artery in rats and it acted more strongly than the racemic modification or (+)-form
- Suppression ratio of cerebral edema [1]: 28.4%
- Acute toxicity (in words) (rats): less than that of the racemic modification or (+)-form
- Acute toxicity LD50 (rats): 1200 mg/kg
- Effect on infarcted area (in words) ([2]; 10 mg/kg/hr for 24 hours): significantly reduced the infarcted area caused by the occlusion of rat middle cerebral artery and it acted more strongly than the racemic modification
- Infarcted lesions (ratio of infarcted lesions to total area) [2]: 8.5%
- Reduction ratio of infarcted lesions [2]: 48.9

SMILES: CCCC(C)C1(CC)C(=O)NC(=O)NC1=O (centres unmarked) [pentobarbital]
- Brain protective action / suppression of cerebral edema (in words) [3]: protective action of brain against cerebral ischemia

SMILES: CC1CC=NN1C(=O)c1cccnc1 (single isomer, unassigned; (+)) [(+)-form, (+)-1-(3-Pyridylcarbonyl)-5-methyl-2-pyrazoline]
- Suppression ratio of cerebral edema [1]: 15.7%
- Acute toxicity LD50 (rats): 400 mg/kg

SMILES: CC1CC=NN1C(=O)c1cccnc1 (racemic) [Racemic modification, (±)-1-(3-Pyridylcarbonyl)-5-methyl-2-pyrazoline]
- Suppression ratio of cerebral edema [1]: 18.7%
- LD50 at 72 h [4]: 800 mg/kg
- Infarcted lesions (ratio of infarcted lesions to total area) [2]: 11.0%
- Reduction ratio of infarcted lesions [2]: 32.0
